In US5013837A, “3-Arylcarbonyl-1H-indole-containing compounds” (Sterling Drug Inc., priority 1990, dated 1991):

Assays:
[1] = test system: mouse vasa deferentia (MVD) preparation; assay: mouse vas deferens test (MVD); type: cell-based; details: inhibition of contractions in vitro, active at IC50 of 5.0 μM or less
Excerpt: Med. Assoc. 217, 1392 (1971)]. […] Opth. 7, 921-923 (1975); Green and Pederson, Effect of delta-9 Tetrahydrocannabinol on Aqueous Dynamics and Ciliary Body Permeability in the Rabbit Eye., Exptl. Eye Research 15, 499-507 (1973); Colasanti, Craig and Allara, Intraocular Pressure, Ocular Toxicity and Neurotoxicity after Administration of Cannabinol or Cannibigerol, Exptl. Eye Research 39, 252-259 (1984)]. Similarly, synthetic cannabinoids also reduce intraocular pressure [Green, Symunds, Oliver and Elijah, Intraocular Pressure Following Systemic Administration of Cannabinoids, Curr Eye Research 2, 247-253 (1982); Tiedeman, Shields, Weber, Crow, Coccetto, Harris and Howes, Ophthalmology, 88, 270-277 (1981); Colasanti et al., supra]. Cannabinoid receptor binding sites can be defined as those to which radio-labelled 4-(1,1-dimethylheptyl)-2,3'-dihydroxy-6'alpha-(3-hydroxypropyl)-1',2',3',4',5',6'-hexahydrobiphenyl (CP 55940) binds in a specific and saturable manner, and the binding sites are heterogeneously distributed in the brain [Devane, Dysarz, Johnson, Melvin and Howlett, Determination and Characterization of a Cannabinoid Receptor in Rat Brain, Molecular Pharm. 34, 605-613 (1988)]. Natural and synthetic cannabinoids and representative examples of the compounds of the present invention bind to CP 55940 binding sites. […]

[2] = topical application or systemic injection; cited from earlier work

SMILES | IC50 [1] [nM] | effect on intraocular pressure [2]
O=C(c1ccc2ccccc2c1)c1cn(CCN2CCOCC2)c2ccccc12 [Example 1S] | 50 | –
CCCCCc1cc(O)c2c(c1)OC(C)(C)[C@@H]1CCC(C)=C[C@@H]21 [delta-9 tetrahydrocannabinol] | – | reduces intraocular pressure
